Measurements as given in US4235916A, “2-Methylthio-6-fluoro-9-(1-methyl-4-piperidylidene)-thioxanthene and salts thereof, neuroleptic compositions and method of use” (Kefalas A/S, priority 1977, dated 1980).
pIC50: −log10 of the molar value. Where two headings read alike, the source gives them in different places.

What was measured:
[1] = Catalepsy wire mesh, rat, max.; assay type: in vivo, male; settings: rats; for Ratio Catalep./Amphetam. antag.: catalepsy ED50 (s.c.) / amphetamine antagonism ED50 (i.p.); for ED50: rat, in vivo, sc, wire mesh, maximum effect within first 6 hours
Procedure: Catalepsy wire mesh, rat, max. (ED50 mg/kg s.c.)
A vertical wire netting (50 cm×49 cm). The meshes (openings) of the netting are square (1 cm×1 cm). The wire diameter is 2 mm.
The animals are labeled and used in groups of five. The test substance is injected subcutaneously (s.c.) (5 ml/kg) at 4 dose levels selected from the fixed dose scale.
The animals are placed in the middle of the vertical wire netting 60, 120, 180, 240, 300 and 360 minutes after injection of the test compound. The animals are considered cetaleptic when they remain immobile during a period of 15 seconds. This cataleptic reaction is designated +. If the rats are "atonic" and passively slides down the wire mesh they are considered not cataleptic. If the animals climb up and down the wire mesh they are nor cataleptic. In both situations the designation - is used.

methylphenidate = test: Methylphenidate antagonism; assay type: in vivo, male; settings: Mus musculus, ip, mice, i.p.
Procedure: Methylphenidate antagonism (ED50 mg/kg i.p.)
Perspex observation cages without bottom and lid, consisting of 5 sections each measuring 12×25×30 cm. White corrugated paper. Mice, male, 18-25 g.
3×2 mice are used for each dose level. Two or 24 hours after injection of test substance, methylphenidate, 60 mg/kg, is injected s.c.
After administration of methylphenidate the mice are placed in the observation cages, 2 in each cage, where they remain for exactly 1 hour. The cages are placed on corrugated paper, the corrugations facing upwards. It is examined whether the mice have been biting the corrugated paper or not. […] If one or more of the control pairs have not been biting, the test has to be repeated on a new set of mice.
The result is stated in fractions: 0/3, 1/3, 2/3 and 3/3 where 0, 1, 2 and 3 are the number of pairs which have not been biting on receipt of the dose in question.

[2] = Determination of LD50 (acute toxicity, i.p.); assay type: in vivo, Mice, male; settings: for LD50 at 24 h: mouse, in vivo, ip, mice, i.p., deaths after 24 hours; for acute toxicity, in words: compared with Lu 14-089 or related thioxanthene derivatives
Procedure: Determination of LD50 (mg/kg i.p.)
Mice, male, weighing from 18-25 g, fasted from 4 p.m. the day before test day.
Four treated groups and one control group, each of 4 mice, are used.
The test substance is suspended in methyl cellulose 0.5% and injected intraperitoneally. The animals are placed in Macrolon cages type II. […] Furthermore the results are recorded according to the punching instructions as fractions: 0/4, 1/4, 2/4, 3/4 and 4/4 where 0, 1, 2, 3 and 4 indicate the number of deaths after the dose in question.

physostigmine = test: Physostigmine antagonism; assay type: in vivo, male; settings: Mus musculus, ip, 0.5 h; mice, i.p., physostigmine 2 mg/kg i.p. thirty minutes after test substance; survivors after 60 minutes; read-out: Physostigmine antag. (ED50)
Procedure: Physostigmine antagonism (ED50 mg/kg i.p.)
Scopolamine bromide 0.04 mg/ml or 0.1 mg/ml.
Physostigmine salicylate 0.2 mg/ml.
Five mice are used for each dose level. One group, serving as positive control, is injected with scopolamine 0.4 mg/kg i.p. Thirty minutes after i.p. administration of test substance (or scopolamine), physostigmine 2 mg/kg, is injected i.p. This dose of physostigmine induces tremor with salivation, clonic convulsions, coma and death. After 60 minutes the number of survivors are counted.
The results are recorded in fractions: 0/5, 1/5, 2/5, 3/5, 4/5 and 5/5 where 0, 1, 2, 3, 4 and 5 inducate the number of animals in which the test compound has prevented the occurrence of death.

amphetamine = test: Amphetamine antagonism; assay type: in vivo, Rats, male; settings: for ED50: Rattus norvegicus, ip, 2 h, rats, i.p., amphetamine sulphate 13.6 mg/kg i.v. two hours later, read-out: Amphetamine antag. (ED50)
Procedure: Amphetamine antagonism (ED50 mg/kg i.p.)
Perspex observation cages without bottom and lid, consisting of 5 sections each measuring 12×25×30 cm.
The test substance is given i.p. in a reasonable dose based on the determined LD50. Two hours later an intravenous injection of amphetamine sulphate 13.6 mg/kg (~10 mg/kg amphetamine base) is given, after which the rats are placed individually in the cages. The cages are placed on white corrugated paper. Five rats are used for each dose level. Observations are made after 55 minutes and 65 minutes--observation time: 1 minute. The animals are observed for stereotypy (movements of the head, compulsive gnawing). […] If the compound has full antagonistic effect another group of rats is used at a lower dose. […] The result is stated as fractions: 0/5, 1/5, 2/5, 3/5, 4/5 and 5/5, where 0, 1, 2, 3, 4 and 5 indicate the number of rats which have not shown stereotypy at the dose in question. The results are calculated as ED50 in mg/kg.

apomorphine = test: Apomorphine vomit; assay type: in vivo, Adult Beagle dogs; settings: Canis lupus familiaris, sc, 4 h; Beagle dogs, s.c., four hours before apomorphine 25 μg/kg i.v.; calculated ED50 approximate; read-out: Apomorph. Vomit (ED50)
Procedure: Adult Beagle dogs of either sex, housed individually in kennels or in cages.
2-4 dogs are used per dose level.
The test compound is injected subcutanelusly in the back of the neck four hours before apomorphine, which is given intravenously in a dose of 25 μg/kg (volume 0.1 ml/kg).
The results are given as fractions, i.e. 0/2, 1/2 or 2/2, stating the number of dogs protected against vomiting over to the number of dogs. On account of the small number of animals the calculated ED50 should be considered approximate.

Muscarinic = Muscarinic affinity binding (3H-PrBCM, whole brain P2 fraction); parameters: species or system Rats; settings: displacement of specific 3H-PrBCM binding by 50%; rat brain, pH 7.4, 30° C.; read-out: Muscarine affinity (IC50)
Procedure: Muscarinic affinity binding
Sodium thiosulphate 10 mM (2.48 g/1000 ml) ^3 H-PrBCM (N-2'-chloroethyl-N-[2", 3"-^3 H2 ] propyl-2-aminoethylbenzilate,spec. act. ~28 Ci/mM).
A rat is killed by a blow on the head and exsanguinated. The whole brain is removed and homogenized in 10 volumes of ice cold 0.32 M sucrose with a hand homogenizer. The homogenate is centrifuged at 600 g for 10 minutes (4° C.) and the pellet discarded. The supernatant is then centrifuged at 25000 g for 55 minutes (4° C.). The pellet fraction (P2) is resuspended in the same volume of 0.32 M sucrose as previously used and stored on ice.
The aziridinium ion of ^3 H-propylbenzilyllcholine mustard (^3 H-PrBCM) is prepared by cyclization at a concentration of 130 nM in 15 mM Na-phosphate buffer (pH 7.4) for 50 minutes at 20° C. The reaction is terminated by addition of 100 volumes of ice cold buffer.
The incubation is continued for 15 minutes and stopped by addition of 20 ml 100 mM phosphate buffer containing 10 mM sodium thiosulphate. The samples are filtered through Whatman GF/C glass fiber filters and washed with 30 ml ice cold 100 mM phosphate buffer. The filters with synaptosomes are transferred to scintillation vials and the radio-activity measured by liquid scintillation counting after addition of 10 ml Instal-Gel (Packard Inst.). All experiments are performed in triplicate.
Specific ^3 H-PrBCM binding is defined as the total binding minus the binding in the presence of 20 μM atropine.

[3] = Administration to human beings; settings: in vivo
Excerpt: Lu 14-089 as well as the non-toxic acid addition salts thereof may be administered to animals such as dogs, cats, horses sheeps or the like, including human beings, both orally and parenterally, and may be used for example in the form of tablets capsules, powders, syrups, suppositories, or in the form of the usual sterile solutions for injection.

[4] = Neuroleptic and pharmacological profile evaluated by standard test methods (overall statements); assay type: in vivo
Excerpt: The pharmacological testing of 2-methylthio-6-fluoro-9-(1-methyl-4-piperidylidene)-thioxanthene, in the following called Lu 14-089 for short, and its non-toxic acid addition salts consisted of standard and reliable tests.

[5] = methylphenidate 60 mg/kg s.c. 2 h after test substance, read-out: Methylphenidate antag. 2h (ED50)
[6] = methylphenidate 60 mg/kg s.c. 24 h after test substance, read-out: Methylphenidate antag. 24h (ED50)

SMILES | Ratio Catalep./Amphetam. antag. [1] | ED50 [1] [mg/kg] | ED50 (methylphenidate; [5]) [mg/kg] | LD50 at 24 h [2] [mg/kg] | ED50 (physostigmine) [mg/kg] | ED50 (amphetamine) [mg/kg] | ED50 (methylphenidate; [6]) [mg/kg] | ED50 (apomorphine) [mg/kg] | pIC50 (Muscarinic) | acute toxicity, in words [2] | neuroleptic activity as expressed by the amphetamine antagonism, in words (amphetamine; compared with Lu 14-089) | Results upon administration to human beings [3] | neuroleptic effects, in words ([4]; compound and its non-toxic acid addition salts) | anticholinergic effects, in words ([4]; in vivo) | extrapyramidal side effects, in words ([4]; pharmacological profile, standard test methods)
CN1CCC(=C2c3ccc(F)cc3Sc3ccc(Cl)cc32)CC1 [Lu 12-304, 2-Chloro-6-fluoro-9-(1-methyl-4-piperidylidene)-thioxanthene] | 0.62 | 3.4 | 4.6 | 187 | 8.9 | 5.5 | – | – | – | – | – | – | – | – | –
CN1CCC(=C2c3ccc(F)cc3Sc3ccc(C(F)(F)F)cc32)CC1 [Lu 12-312, 2-Trifluoromethyl-6-fluoro-9-(1-methyl-4-piperidylidene)-thioxanthene] | 0.12 | 0.067 | 0.07 | 188 | 7.7 | 0.56 | 2.1 | 0.04 | 7.74 | – | – | – | – | – | –
OCCN1CCN(CCCN2c3ccccc3Sc3ccc(C(F)(F)F)cc32)CC1 [fluphenazine] | – | 0.099 | 0.04 | 259 | > 20 | 0.08 | 3.6 | 0.007 | – | – | – | – | – | – | –
O=C(CCCN1CCC(O)(c2ccc(Cl)cc2)CC1)c1ccc(F)cc1 [haloperidol] | – | 0.21 | 0.06 | 226 | > 20 | 0.14 | – | 0.01 | – | – | – | – | – | – | –
OCCN1CCN(CCC=C2c3ccccc3Sc3ccc(C(F)(F)F)cc32)CC1 [flupentixol] | 0.36 | 0.25 | 0.2 | 246 | > 40 | 0.69 | > 20 | 0.02 | 5.40 | – | – | – | – | – | –
CN1CCN(C2=Nc3cc(Cl)ccc3Nc3ccccc32)CC1 [clozapine] | – | 85 | > 160 | > 320 | 24 | > 40 | – | ~4 | – | – | – | – | – | – | –
OCCN1CCN(CCC=C2c3ccccc3Sc3ccc(Cl)cc32)CC1 [clopenthixol] | – | 0.95 | 1.2 | 226 | > 20 | 0.77 | – | 0.04 | – | – | – | – | – | – | –
CN1CCC(=C2c3ccccc3Sc3ccc(C(F)(F)F)cc32)CC1 [Lu 13-003, 2-Trifluoromethyl-9-(1-methyl-4-piperidylidene)-thioxanthene] | 3.5 | 1.3 | 0.15 | 187 | 4.6 | 0.37 | – | – | 8.10 | – | – | – | – | – | –
CN1CCC(=C2c3ccccc3Sc3ccc(Cl)cc32)CC1 [Lu 13-016, 2-Chloro-9-(1-methyl-4-piperidylidene)-thioxanthene] | 6.5 | 25 | 1 | 226 | 4.4 | 3.9 | > 20 | – | 7.85 | higher acute toxicity | much lower neuroleptic activity | – | – | – | –
CN(C)CCCN1c2ccccc2Sc2ccc(Cl)cc21 [chlorpromazine] | – | 5.6 | 4 | 226 | > 40 | 7.1 | 20 | 0.36 | – | – | – | – | – | – | –
CSc1ccc2c(c1)C(=C1CCN(C)CC1)c1ccc(F)cc1S2 [Lu 14-089, 2-methylthio-6-fluoro-9-(1-methyl-4-piperidylidene)-thioxanthene] | 8.5 | 6.3 | 0.1 | > 320 | 7.2 | 0.74 | 14 | 0.014 | 7.85 | low acute toxicity compared with related thioxanthene derivatives | – | very gratifying | strong and relatively longlasting neuroleptic effects | strong anticholinergic effects | low extrapyrimidal side effects
CN(C)CC/C=C1/c2ccccc2Sc2ccc(Cl)cc21 [chlorprothixene] | – | 4 | 0.71 | 226 | 86 | 6.1 | > 20 | 0.9 | – | – | – | – | – | – | –
CSc1ccc2c(c1)C(=C1CCN(C)CC1)c1ccccc1S2 [Lu 14-145, 2-Methylthio-9-(1-methyl-4-piperidylidene)-thioxanthene] | – | > 20 | 1.4 | 188 | 4.9 | > 20 | 14 | – | 7.89 | – | – | – | – | – | –
